Laboratory results: patent publication US20090247495A1, “CU[…] AND USES THEREOF” (priority 2007, published 2009)
“Also recorded” adds a separate entry of the source.

Tests used:
[1] = system: Human cancer cell lines from the 59-NCI Cancer Cell Line Panel; format: cell-based
[2] = system: Human liver cancer cell lines HepG2; assay: MTT cytotoxicity assay, matrix combination of CuB and Sb on liver cancer cells; format: cell-based; settings: HepG2, 2 days, Sb 0 μM
Procedure: Human liver cancer cell lines HepG2 was purchased from American Type Culture Collection (ATCC, Manassas, Va., USA). The cells were cultured in RPMI 1640 medium supplemented with 5% (v/v) fetal bovine serum (FBS) and 100 units/ml penicillin and streptomycin (Invitrogen Life Technologies) in a humidified 5% CO2 atmosphere at 37° C.
A total of 1×10^4 cells were seeded into a 96-well plate for 24 hours prior to drug treatment. They were then treated with different dosages (a multiple of 20-fold of IC50 values) of CuB or Sb for 48 hours. After the treatment, 20 μl of MTT (5 mg/ml) was added to each well and incubated for 4 hrs. Then the medium was discarded and 100 μl of dimethyl sulfoxide was added. The absorbance at 570 nm was then measured by using FLUOstar OPTIMA equipment (BMG, LABTECH GmbH, Germany). The percentage of inhibition against different dosages of CuB or Sb were plotted using the Prism software and the 50% inhibition concentration (IC50) were obtained.
The cells were then treated for 2 days and the % inhibition of growth is determined.
The excess over Bliss additivism may be calculated using the following formula and shown in Table 4: • Bliss Additivism: Combined response=CuB+Sb−(CuB)(Sb) where each effect is expressed as fractional inhibition between 0 and 1 • Excess over additivism=observed response−combined response

Raf/Mek/Erk pathway = assay: Western blot of phosphorylated c-Raf, Mek1/2, Erk1/2 and Elk-1 in K562 cells; format: cell-based, human; settings: 50 μM
Procedure: K562 leukemia cells were serum starved for 18 hours prior to cucurbitacin B treatment. The cells were incubated at a 75-mm culture flask filled with 10 ml growth medium (RPMI with 10% FBS and 1% PS) at the cell density of 1×10^5 cells/ml in the presence or absence of cucurbitacin B for various time intervals. The drug treatment were terminated by centrifugation at 1500 rpm for 5 minutes and the cells were rinsed twice with phosphate-buffered saline and lysed at 4° C. in a lysis buffer containing 50 mM Tris-HCl, pH7.5, […], 5 mM EDTA, 40 mM NaP2O7, 1% Triton X-100, 1 mM dithiothreitol, 200 μM Na3VO4, 100 μM phenylmethysufonyl fluoride, 2 μg/ml leupeptin, 4 μg/ml aprotinin and 0.7 μg/ml pepstatin. The insoluble protein lysate were removed by centrifugation for 10 minutes at 13000 rpm. Fifteen micrograms of protein lysate was resolved using SDS-polyacryamide gel electrophoresis (PAGE) (usually 8%-12% polyacrylamide gel) and then subjected to western blot anaylsis. Western blots were performed with antibodies specific for phosphorylated and total Stat3, c-Raf, Mek, and Erk. […]
In order to further investigate if cucurbitacin B block the Stat3 activation is truly through Erk pathway in K562 cells, the ability of cucurbitacin B to inhibit the Ras/Raf/Mek/Erk pathway was determined by measuring Ras-GTP, phosphorylation of c-Raf, Mek1/2, Erk1/2 and Elk-1 in K562 cells. […]

[3] = system: 59 human cancer cell lines; assay: SRB growth inhibition, 59-NCI Cancer Cell Line Panel; format: cell-based; settings: 48 hours, range over 59 cell lines
Text: Human cancer cell lines from the 59-NCI Cancer Cell Line Panel including leukemia, melanoma and cancers of breast, brain, colon, lung, ovary, prostate and kidney, were purchased from the National Institute of Cancer (USA). The growth inhibition (GI50) of these cell lines treated with cucurbitacin B and cucurbitacin D in various concentrations was investigated.
59 human cancer cell lines were maintained in RPMI 1640 (Invitrogen Life Technologies, CA, USA) supplemented with 5% Fetal Bovine Serum, 2 mM L-glutamine and 1% Penicillin/Streptomycin (Invitrogen Life Technologies) at 37° C. with 5% CO2. All chemicals were purchased from Sigma (St. Louis, Mo., USA) unless specified otherwise.
Sulforhodamine B (SRB) assay was applied to determine the cytostatic effect of cucurbitacin B and cucurbitacin D. SRB is a dye that binds to cellular proteins and will be dissolved in base. The biomass of total protein can be measured at 520 nm using a plate reader.
Cells were inoculated into 96-well microtiter plates including “Time zero” (Tz) plates in 100 μl at cell concentrations from 5000 to 40,000 cells per well according to NCI guideline. The cells were incubated at 37° C. with 5% CO2 for 24 hours. […] Bound SRB was solubilized with 100-200 ul per well of 10 mM trizma base and absorbance was measured at a wavelength of 520 nm. The percentage of growth inhibition was calculated as follows: […]

With `CC(=O)OC(C)(C)/C=C/C(=O)[C@](C)(O)C1[C@H](O)C[C@@]2(C)C3CC=C4C(C[C@H](O)C(=O)C4(C)C)[C@]3(C)C(=O)C[C@]12C` (some centres unmarked) [cucurbitacin B] the “cell lines with G2/M arrest” value [1] was 6 out of 18, the cell cycle effect ([1]; HL60 (TB), 48 hours) was “G2/M arrest and endoreduplication” and the “% inhibition” value ([2]; CuB 0.056 μM) was 25.89%. The “Excess over Bliss additivism” value ([2]; CuB 0.056 μM) was 0, the “Excess over Highest Single Agent Model” value ([2]; CuB 0.056 μM) was 0 and the “% inhibition” value ([2]; CuB 0.167 μM) was 41.93%. The “Excess over Bliss additivism” value ([2]; CuB 0.167 μM) was 0, the “Excess over Highest Single Agent Model” value ([2]; CuB 0.167 μM) was 0 and the “% inhibition” value ([2]; CuB 0.5 μM) was 37.94%. For the same molecule, the “Excess over Bliss additivism” value ([2]; CuB 0.5 μM) was 0, the “Excess over Highest Single Agent Model” value ([2]; CuB 0.5 μM) was 0 and the “% inhibition” value ([2]; CuB 1.5 μM) was 39.01%. The “Excess over Bliss additivism” value ([2]; CuB 1.5 μM) was 0, the “Excess over Highest Single Agent Model” value ([2]; CuB 1.5 μM) was 0 and the “% inhibition” value ([2]; CuB 4.5 μM) was 36.57%. For the same molecule, the “Excess over Bliss additivism” value ([2]; CuB 4.5 μM) was 0, the “Excess over Highest Single Agent Model” value ([2]; CuB 4.5 μM) was 0 and the “activation (phosphorylation) of c-Raf, Mek1/2, Erk1/2 and Elk-1” value (Raf/Mek/Erk pathway; 5 minutes treatment) was “significantly inhibited; also recorded: significant disruption”. The “inhibition of the Raf/Mek/Erk pathway” value (Raf/Mek/Erk pathway; 4 hours) was “Complete inhibition” and the GI50 [3] was 5.8 to 164 nM.
